Experimental data: ChEMBL document CHEMBL1201862, “PubChem BioAssay data set” (2004)
Several values for one entry are separate records, joined by “and”; a condition that tells them apart may be missing. Equal entries are not always repeated.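 Cells were grown in 96-well plates and exposed to each compound for 48 hours at five concentrations; endpoints were interpolated linearly between bracketing concentrations, or set to the highest concentration if not reached. GI50 marks 50% less growth.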 Activity calls are given as the source filed them. Cut-off read from the data, not from the text of the source: active = GI50 up to about 1.1 µM and inactive = higher.

Tests used:
Assay in all cases: NCI tumour cell line growth inhibition, 48 h
[1] = tested on: NCI-H522
[2] = tested on: UACC-257
[3] = tested on: RXF 393
[4] = tested on: A549
[5] = tested on: NCI-H460
[6] = tested on: Hs-578T
[7] = tested on: MCF7
[8] = tested on: OVCAR-4
[9] = tested on: OVCAR-8
[10] = tested on: 786-0
[11] = tested on: HT-29
[12] = tested on: LOX IMVI
[13] = tested on: T47D
[14] = tested on: SK-MEL-28
[15] = tested on: K562
[16] = tested on: IGROV-1
[17] = tested on: SNB-75
[18] = tested on: MDA-MB-435
[19] = tested on: SF-295
[20] = tested on: OVCAR-3
[21] = tested on: UACC-62
[22] = tested on: UO-31
[23] = tested on: DU-145
[24] = tested on: HCT-116
[25] = tested on: MOLT-4
[26] = tested on: M14
[27] = tested on: RPMI-8226
[28] = tested on: KM12
[29] = tested on: SF-539
[30] = tested on: EKVX
[31] = tested on: SW-620
[32] = tested on: SK-OV-3
[33] = tested on: PC-3
[34] = tested on: ACHN
[35] = tested on: SK-MEL-2
[36] = tested on: OVCAR-5
[37] = tested on: NCI-H23
[38] = tested on: BT-549
[39] = tested on: COLO 205
[40] = tested on: CAKI-1
[41] = tested on: SF-268
[42] = tested on: A498
[43] = tested on: HCC 2998
[44] = tested on: HOP-92
[45] = tested on: NCI/ADR-RES
[46] = tested on: SNB-19
[47] = tested on: TK-10
[48] = tested on: U-251
[49] = tested on: MDA-MB-231
[50] = tested on: SR
[51] = tested on: SN12C
[52] = tested on: SK-MEL-5
[53] = tested on: NCI-H226
[54] = tested on: HL-60
[55] = tested on: HOP-62
[56] = tested on: HCT-15
[57] = tested on: CCRF-CEM
[58] = tested on: Malme-3M
[59] = tested on: MDA-N

## Cc1ccccc1CN1CC2=C(CCN(Cc3ccccc3)C2=O)N2CCN=C12
[1]
  GI50: 3.73 µM (inactive)
[2]
  GI50: 3.5 µM (inactive)
[3]
  GI50: 54 µM (inactive)
[4]
  GI50: 4.76 µM (inactive)
[5]
  GI50: 4.24 µM (inactive)
[6]
  GI50: 14.4 µM (inactive)
[7]
  GI50: 4.86 µM (inactive)
[8]
  GI50: 3.27 µM (inactive)
[9]
  GI50: 4.76 µM (inactive)
[10]
  GI50: 8.89 µM (inactive)
[11]
  GI50: 5.31 µM (inactive)
[12]
  GI50: 3.49 µM (inactive)
[13]
  GI50: 4.8 µM (inactive)
[14]
  GI50: 29.2 µM (inactive)
[15]
  GI50: 2.96 µM (inactive)
[16]
  GI50: > 100 µM (inactive)
[17]
  GI50: 6.08 µM (inactive)
[18]
  GI50: 4.74 µM (inactive)
[19]
  GI50: 3.21 µM (inactive)
[20]
  GI50: 4.48 µM (inactive)
[21]
  GI50: 11.1 µM (inactive)
[22]
  GI50: 6.81 µM (inactive)
[23]
  GI50: 6.14 µM (inactive)
[24]
  GI50: 4.06 µM (inactive)
[25]
  GI50: 9.66 µM (inactive)
[26]
  GI50: 6.4 µM (inactive)
[27]
  GI50: 1.55 µM (inactive)
[28]
  GI50: 46.2 µM (inactive)
[29]
  GI50: 52.4 µM (inactive)
[30]
  GI50: 6.32 µM (inactive)
[31]
  GI50: 4.5 µM (inactive)
[32]
  GI50: 7.78 µM (inactive)
[33]
  GI50: 3.58 µM (inactive)
[34]
  GI50: 6.61 µM (inactive)
[35]
  GI50: 4.81 µM (inactive)
[36]
  GI50: 8.41 µM (inactive)
[37]
  GI50: 4.62 µM (inactive)
[38]
  GI50: 14.8 µM (inactive)
[39]
  GI50: 1.86 µM (inactive)
[40]
  GI50: 4.69 µM (inactive)
[41]
  GI50: 6.87 µM (inactive)
[42]
  GI50: 13.1 µM (inactive)
[43]
  GI50: 4.06 µM (inactive)
[44]
  GI50: 21.6 µM (inactive)
[45]
  GI50: 4.09 µM (inactive)
[46]
  GI50: 6.79 µM (inactive)
[47]
  GI50: 7.35 µM (inactive)
[48]
  GI50: 4.8 µM (inactive)
[49]
  GI50: 4.45 µM (inactive)
[50]
  GI50: 4.59 µM (inactive)
[51]
  GI50: 5.6 µM (inactive)
[52]
  GI50: 2.63 µM (inactive)
[53]
  GI50: 3.56 µM (inactive)
[54]
  GI50: 3.78 µM (inactive)
[55]
  GI50: 9.16 µM (inactive)
[56]
  GI50: 5.04 µM

## CC1(C)OC2C(O)CN3CCS[C@H]3C2O1 (stereo not given in full)
[1]
  GI50: > 100 µM (inactive)
[2]
  GI50: > 100 µM (inactive)
[3]
  GI50: > 100 µM (inactive)
[4]
  GI50: > 100 µM (inactive)
[5]
  GI50: > 100 µM (inactive)
[6]
  GI50: > 100 µM (inactive)
[8]
  GI50: > 100 µM (inactive)
[57]
  GI50: > 100 µM (inactive)
[9]
  GI50: > 100 µM (inactive)
[10]
  GI50: > 100 µM (inactive)
[11]
  GI50: > 100 µM (inactive)
[12]
  GI50: > 100 µM (inactive)
[13]
  GI50: > 100 µM (inactive)
[14]
  GI50: > 100 µM (inactive)
[15]
  GI50: > 100 µM (inactive)
[16]
  GI50: > 100 µM (inactive)
[17]
  GI50: > 100 µM (inactive)
[18]
  GI50: > 100 µM (inactive)
[19]
  GI50: > 100 µM (inactive)
[20]
  GI50: > 100 µM (inactive)
[21]
  GI50: > 100 µM (inactive)
[22]
  GI50: > 100 µM (inactive)
[23]
  GI50: > 100 µM (inactive)
[24]
  GI50: > 100 µM (inactive)
[25]
  GI50: > 100 µM (inactive)
[26]
  GI50: > 100 µM (inactive)
[27]
  GI50: > 100 µM (inactive)
[28]
  GI50: > 100 µM (inactive)
[30]
  GI50: > 100 µM (inactive)
[31]
  GI50: > 100 µM (inactive)
[32]
  GI50: > 100 µM (inactive)
[33]
  GI50: > 100 µM (inactive)
[34]
  GI50: > 100 µM (inactive)
[35]
  GI50: > 100 µM (inactive)
[36]
  GI50: > 100 µM (inactive)
[37]
  GI50: > 100 µM (inactive)
[38]
  GI50: > 100 µM (inactive)
[39]
  GI50: > 100 µM (inactive)
[40]
  GI50: > 100 µM (inactive)
[41]
  GI50: > 100 µM (inactive)
[42]
  GI50: > 100 µM (inactive)
[43]
  GI50: > 100 µM (inactive)
[44]
  GI50: > 100 µM (inactive)
[45]
  GI50: > 100 µM (inactive)
[46]
  GI50: > 100 µM (inactive)
[47]
  GI50: > 100 µM (inactive)
[48]
  GI50: > 100 µM (inactive)
[49]
  GI50: > 100 µM (inactive)
[50]
  GI50: > 100 µM (inactive)
[52]
  GI50: > 100 µM (inactive)
[53]
  GI50: > 100 µM (inactive)
[54]
  GI50: > 100 µM (inactive)
[58]
  GI50: > 100 µM (inactive)
[55]
  GI50: > 100 µM (inactive)
[56]
  GI50: > 100 µM

## COc1ccc(/C=C/C(=O)OC2CC34CCNC35CC(OC5(OC)C2OC)c2ccc(OC)c(O)c24)cc1O (stereo not given)
[2]
  GI50: > 100 µM (inactive)
[4]
  GI50: > 100 µM (inactive)
[5]
  GI50: > 100 µM (inactive) and 57.7 µM (inactive)
[6]
  GI50: > 100 µM (inactive) and 52.2 µM (inactive)
[7]
  GI50: > 100 µM (inactive) and 70 µM (inactive)
[8]
  GI50: > 100 µM (inactive) and 50.6 µM (inactive)
[9]
  GI50: > 100 µM (inactive)
[13]
  GI50: > 100 µM (inactive)
[14]
  GI50: 79.4 µM (inactive)
[16]
  GI50: > 100 µM (inactive) and 86.3 µM (inactive)
[18]
  GI50: > 100 µM (inactive)
[19]
  GI50: > 100 µM (inactive) and 62.4 µM (inactive)
[21]
  GI50: > 100 µM (inactive)
[22]
  GI50: > 100 µM (inactive)
[23]
  GI50: > 100 µM (inactive)
[26]
  GI50: > 100 µM (inactive) and 88.7 µM (inactive)
[29]
  GI50: > 100 µM (inactive) and 87.1 µM (inactive)
[30]
  GI50: > 100 µM (inactive)
[31]
  GI50: 58.1 µM (inactive)
[32]
  GI50: > 100 µM (inactive)
[34]
  GI50: > 100 µM (inactive) and 80.7 µM (inactive)
[35]
  GI50: > 100 µM (inactive)
[36]
  GI50: > 100 µM (inactive)
[37]
  GI50: > 100 µM (inactive) and 88.1 µM (inactive)
[38]
  GI50: > 100 µM (inactive)
[59]
  GI50: > 100 µM (inactive)
[40]
  GI50: > 100 µM (inactive)
[41]
  GI50: > 100 µM (inactive)
[42]
  GI50: > 100 µM (inactive)
[44]
  GI50: 76 µM (inactive)
[45]
  GI50: 63 µM (inactive)
[46]
  GI50: > 100 µM (inactive)
[47]
  GI50: > 100 µM (inactive)
[51]
  GI50: 55.1 µM (inactive)
[52]
  GI50: 57.3 µM (inactive)
[53]
  GI50: > 100 µM (inactive)
[54]
  GI50: 24.1 µM (inactive)
[55]
  GI50: > 100 µM (inactive) and 61.4 µM (inactive)
[56]
  GI50: 58.5 µM
